Measured values from PubChem BioAssay AID330 (DTP/NCI, 2004).
“And” between values parts separate entries of the source, which are not always exact repeats. Equal entries are not always repeated. Toxic doses and inconclusive results are not listed.

System: P388 leukemia ip, CD2F1 mice, survival T/C
Assay: NCI In Vivo Anticancer Drug Screen. Data for tumor model P388 Leukemia (intraperitoneal) in CD2F1 (CDF1) mice
Settings: endpoint: median survival time, higher = longer survival
In short: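 Mice carrying the transplanted tumor received test compound or vehicle. Survival was recorded in each group, and the value is the treated-group measurement divided by that of the vehicle-treated control group.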

[1] = dose: 50.0 mg/kg/injection, schedule: Q01DX009 (ip), vehicle: Klucel (hydroxypropylcellulose) (HPC)
[2] = dose: 100.0 mg/kg/injection, schedule: Q01DX009 (ip), vehicle: Klucel (hydroxypropylcellulose) (HPC)
[3] = dose: 200.0 mg/kg/injection, schedule: Q01DX009 (ip), vehicle: Klucel (hydroxypropylcellulose) (HPC)
[4] = dose: 25.0 mg/kg/injection, schedule: Q01DX009 (ip), vehicle: saline with Tween-80
[5] = dose: 50.0 mg/kg/injection, schedule: Q01DX009 (ip), vehicle: saline with Tween-80
[6] = dose: 100.0 mg/kg/injection, schedule: Q01DX009 (ip), vehicle: saline with Tween-80
[7] = dose: 50.0 mg/kg/injection, schedule: Q01DX005 (ip), vehicle: saline with Tween-80
[8] = dose: 100.0 mg/kg/injection, schedule: Q01DX005 (ip), vehicle: saline with Tween-80
[9] = dose: 200.0 mg/kg/injection, schedule: Q01DX005 (ip), vehicle: saline with Tween-80
[10] = dose: 25.0 mg/kg/injection, schedule: Q01DX009 (ip), vehicle: other
[11] = dose: 50.0 mg/kg/injection, schedule: Q01DX009 (ip), vehicle: other
[12] = dose: 100.0 mg/kg/injection, schedule: Q01DX009 (ip), vehicle: other
[13] = dose: 200.0 mg/kg/injection, schedule: Q01DX009 (ip), vehicle: other

`CCN(CC)Cc1c(C)[nH]c2c3c(ccc2c1=O)Oc1c(ccc2c(=O)c(CN(CC)CC)c(C)[nH]c12)O3` was tested, and the T/C [1] was 96 % of control, the T/C [2] was 93 % of control and the T/C [3] was 96 % of control.

For `COc1cccc2c1C(=O)c1c(O)c3c(c(O)c1C2=O)C[C@@](O)(C(C)=O)CC3OC1CC(NC(=O)CCCN)C(O)C(C)O1` (some centres undefined), the T/C (dose: 6.25 mg/kg/injection, schedule: Q04DX003 (ip), vehicle: saline) was 98 % of control, the T/C (dose: 12.5 mg/kg/injection, schedule: Q04DX003 (ip), vehicle: saline) was 97 % of control and the T/C (dose: 25.0 mg/kg/injection, schedule: Q04DX003 (ip), vehicle: saline) was 100 % of control. The T/C (dose: 50.0 mg/kg/injection, schedule: Q04DX003 (ip), vehicle: saline) was 104 % of control.

For `CC(=O)OC1C=CC(=O)C1(O)CO` (centres undefined), the T/C (dose: 2.0 mg/kg/injection, schedule: Q01DX009 (ip), vehicle: saline) was 97 % of control, the T/C (dose: 4.0 mg/kg/injection, schedule: Q01DX009 (ip), vehicle: saline) was 98 % of control and the T/C (dose: 8.0 mg/kg/injection, schedule: Q01DX009 (ip), vehicle: saline) was 118 % of control. For the same molecule, the T/C (dose: 16.0 mg/kg/injection, schedule: Q01DX009 (ip), vehicle: saline) was 116 % of control.

`Cc1ccc(S(=O)(=O)Cl)cc1Cl` was tested, and the T/C [4] was 101 % of control, the T/C [5] was 102 % of control and the T/C [6] was 101 % of control.

In the case of `COc1ccc2cc3[n+](c(CC(=O)O)c2c1OC)CCc1cc2c(cc1-3)OCO2`, the T/C (dose: 0.63 mg/kg/injection, schedule: Q01DX009 (ip), vehicle: water) is reported as 101 % of control, the T/C (dose: 1.25 mg/kg/injection, schedule: Q01DX009 (ip), vehicle: water) is reported as 88 % of control and the T/C (dose: 2.5 mg/kg/injection, schedule: Q01DX009 (ip), vehicle: water) is reported as 105 % of control. For the same molecule, the T/C (dose: 5.0 mg/kg/injection, schedule: Q01DX009 (ip), vehicle: water) was 117 % of control and the T/C (dose: 10.0 mg/kg/injection, schedule: Q01DX009 (ip), vehicle: water) was 118 % of control.

For `O=C(O)c1ccccc1N1C(=O)CC2(CCCC2)C1=O`, the T/C [1] was 101 % of control, the T/C [2] was 98 % of control and the T/C [3] was 94 % of control.

`O=C(CBr)NN=C(c1ccccc1)c1ccccc1` was tested, and the T/C (dose: 29.0 mg/kg/injection, schedule: Q01DX009 (ip), vehicle: saline with Tween-80) was 104 % of control, the T/C (dose: 58.0 mg/kg/injection, schedule: Q01DX009 (ip), vehicle: saline with Tween-80) was 101 % of control and the T/C (dose: 116.0 mg/kg/injection, schedule: Q01DX009 (ip), vehicle: saline with Tween-80) was 110 % of control.

With `c1ccc(C(=C2CCCCC2)c2ccccc2)cc1` the T/C [7] was 100 % of control, the T/C [8] was 100 % of control and the T/C [9] was 98 % of control.

In the case of `C[C@@]1(O)CC[C@@]23OC(=O)CC2C[C@@H]1O3` (some centres undefined), the T/C (dose: 100.0 mg/kg/injection, schedule: Q01DX001 (ip), vehicle: saline) is reported as 102 % of control, the T/C (dose: 200.0 mg/kg/injection, schedule: Q01DX001 (ip), vehicle: saline) is reported as 98 % of control and the T/C (dose: 400.0 mg/kg/injection, schedule: Q01DX001 (ip), vehicle: saline) is reported as 104 % of control.

In the case of `CC[As](CC)SC1OC(COC(C)=O)C(OC(C)=O)C(OC(C)=O)C1OC(C)=O` (centres undefined), the T/C (dose: 50.0 mg/kg/injection, schedule: Q01DX009 (ip), vehicle: saline + alcohol) is reported as 116 % of control, the T/C [5] is reported as 108 % of control and the T/C (dose: 100.0 mg/kg/injection, schedule: Q01DX009 (ip), vehicle: saline + alcohol) is reported as 180 % of control. The T/C [6] was 115 % of control, the T/C (dose: 200.0 mg/kg/injection, schedule: Q01DX009 (ip), vehicle: saline + alcohol) was 181 % of control and the T/C (dose: 200.0 mg/kg/injection, schedule: Q01DX009 (ip), vehicle: saline with Tween-80) was 96 % of control. For the same molecule, the T/C (dose: 400.0 mg/kg/injection, schedule: Q01DX009 (ip), vehicle: saline with Tween-80) was 102 % of control.

For `ClC1=CC(=N/Br)/C=CC/1=N/Br`, the T/C [7] was 99 % of control and 101 % of control and 107 % of control, the T/C [8] was 100 % of control and 103 % of control and 97 % of control and the T/C [9] was 106 % of control and 108 % of control and 120 % of control.

For `CC1(OC(=O)c2ccc([N+](=O)[O-])cc2)CC(C)(C)[N+]([O-])=N1` (centres undefined), the T/C (dose: 12.5 mg/kg/injection, schedule: Q01DX009 (ip), vehicle: other) was 102 % of control, the T/C [10] was 102 % of control and the T/C [11] was 109 % of control. The T/C [12] was 100 % of control and the T/C [13] was 94 % of control.

`COc1ccc(CNC(=O)C(CO)N2C(=O)c3ccccc3C2=O)cc1` (centres undefined) was tested, and the T/C [7] was 96 % of control, the T/C [8] was 100 % of control and the T/C [9] was 90 % of control.

`COC1OC(COC(=O)c2ccccc2)C(=O)C(OC(=O)c2ccccc2)C1N(O)c1ccccc1` (centres undefined) was tested, and the T/C (dose: 7.5 mg/kg/injection, schedule: Q01DX005 (ip), vehicle: Klucel (hydroxypropylcellulose) (HPC)) was 99 % of control, the T/C (dose: 15.0 mg/kg/injection, schedule: Q01DX005 (ip), vehicle: Klucel (hydroxypropylcellulose) (HPC)) was 104 % of control and the T/C (dose: 30.0 mg/kg/injection, schedule: Q01DX005 (ip), vehicle: Klucel (hydroxypropylcellulose) (HPC)) was 95 % of control.

`CCCCN(CCCC)CC(O)c1cc(-c2ccc(Cl)cc2)nc(-c2ccc(Cl)cc2)c1` (centres undefined) was tested, and the T/C (dose: 12.5 mg/kg/injection, schedule: Q01DX009 (ip), vehicle: saline with Tween-80) was 90 % of control, the T/C [4] was 90 % of control and the T/C [5] was 92 % of control and 93 % of control. The T/C [6] was 90 % of control.

In the case of `CCOC(=O)NNCC(=O)O`, the T/C (dose: 12.5 mg/kg/injection, schedule: Q01DX009 (ip), vehicle: water) is reported as 104 % of control, the T/C (dose: 25.0 mg/kg/injection, schedule: Q01DX009 (ip), vehicle: water) is reported as 105 % of control and the T/C (dose: 50.0 mg/kg/injection, schedule: Q01DX009 (ip), vehicle: water) is reported as 101 % of control. The T/C (dose: 100.0 mg/kg/injection, schedule: Q01DX009 (ip), vehicle: water) was 94 % of control and the T/C (dose: 200.0 mg/kg/injection, schedule: Q01DX009 (ip), vehicle: water) was 98 % of control.

In the case of `COc1cc(C(=O)C(C=O)c2ccccc2)c([N+](=O)[O-])cc1OC` (centres undefined), the T/C (dose: 50.0 mg/kg/injection, schedule: Q01DX005 (ip), vehicle: Klucel (hydroxypropylcellulose) (HPC)) is reported as 94 % of control, the T/C (dose: 100.0 mg/kg/injection, schedule: Q01DX005 (ip), vehicle: Klucel (hydroxypropylcellulose) (HPC)) is reported as 98 % of control and the T/C (dose: 200.0 mg/kg/injection, schedule: Q01DX005 (ip), vehicle: Klucel (hydroxypropylcellulose) (HPC)) is reported as 92 % of control.

For `COc1cc(C2c3cc4c(cc3CCN2C)OCO4)cc(OC)c1OC` (centres undefined), the T/C [7] was 106 % of control and the T/C [8] was 94 % of control.

`COc1ccc2ccc(C=O)cc2c1OC` was tested, and the T/C [10] was 104 % of control, the T/C [11] was 95 % of control and the T/C [12] was 103 % of control. For the same molecule, the T/C [13] was 97 % of control and the T/C (dose: 400.0 mg/kg/injection, schedule: Q01DX009 (ip), vehicle: other) was 112 % of control.

`COc1cc2cc(c1Cl)N1CCC(C)(O)C(=O)NC(C)C(=O)OC(CC1=O)C1(C)OC1C(C)C1CC(O)(NC(=O)O1)C(OC)/C=C\C=C(\C)C2OC` (centres undefined) was tested, and the T/C (dose: 4.0 micrograms/kg/injection, schedule: Q01DX009 (ip), vehicle: distilled water + alcohol) was 150 % of control, the T/C (dose: 16.0 micrograms/kg/injection, schedule: Q01DX009 (ip), vehicle: distilled water + alcohol) was 157 % of control and the T/C (dose: 32.0 micrograms/kg/injection, schedule: Q01DX009 (ip), vehicle: distilled water + alcohol) was 150 % of control.
